Reference: patent publication US9491941B2, “(Hetero) arylacrylamides for the control of ectoparasites” (Novartis Tiergesundheit AG, priority 2012, dated 2016)

Test system: Lepeophtheirus Salmonis at Copeodid Stage (sea lice copepodids)
Experiment: Activity in vitro against Lepeophtheirus salmonis at copepodid stage
Details: copepodids 1 hour contact in sea water, then 48 h untreated sea water; no movement over 80 seconds; serial dilution (MED)
Protocol: 3—Activity In Vitro Against Lepeophtheirus Salmonis at Copeodid Stage
Sea lice copepodids were used to seed a 96-well plate containing the test substances to be evaluated for antiparasitic activity. Each compound was tested by serial dilution in order to determine its minimal effective dose (MED). Copepodids were left in contact with the test compound diluted in sea water for 1 hour. They were then incubated in untreated sea water for 48 h. Efficacy against sea lice was then confirmed if no copepodid moved over a period of 80 seconds.

SMILES | efficacy (EC80)
O=C(/C=C/c1ccc(C(=O)NCC2CC2)c2ccccc12)NC(c1cccc(C(F)(F)F)c1)C(F)(F)F (stereo not drawn) [Example 1.1, N-(cyclopropylmethyl)-4-[(1E)-2-({2,2,2-trifluoro-1-[3-(trifluoromethyl)phenyl]ethyl}carbamoyl)eth-1-en-1-yl]naphthalene-1-carboxamide] | 50 ppb
O=C(/C=C/c1ccc(C(=O)NCc2ccco2)c2ccccc12)NC(c1cccc(C(F)(F)F)c1)C(F)(F)F (stereo not drawn) [Example 1.3] | 50 ppb
O=C(/C=C/c1ccc(C(=O)NC2CC2)c2ccccc12)NC(c1cccc(C(F)(F)F)c1)C(F)(F)F (stereo not drawn) [Example 1.5] | 5 ppb
O=C(/C=C/c1ccc(C(=O)NC2CSC2)c2ccccc12)NC(c1cccc(C(F)(F)F)c1)C(F)(F)F (stereo not drawn) [Example 1.10] | 50 ppb
CCNC(=O)c1ccc(/C=C/C(=O)NC(c2cccc(C(F)(F)F)c2)C(F)(F)F)c2ccccc12 (stereo not drawn) [Example 1.13] | 50 ppb
N#CC1(NC(=O)c2ccc(/C=C/C(=O)NC(c3cccc(C(F)(F)F)c3)C(F)(F)F)c3ccccc23)CC1 (stereo not drawn) [Example 1.26] | 0.5 ppb
CC(C)NC(=O)c1ccc(/C=C/C(=O)NC(c2cccc(C(F)(F)F)c2)C(F)(F)F)c2ccccc12 (stereo not drawn) [Example 1.27] | 50 ppb
CCN1OCC(NC(=O)c2ccc(/C=C/C(=O)NC(c3cccc(C(F)(F)F)c3)C(F)(F)F)c3ccccc23)C1=O (stereo not drawn) [Example 1.34] | 50 ppb
O=C(/C=C/c1ccc(C(=O)NC2CC(F)(F)C2)c2ccccc12)NC(c1cccc(C(F)(F)F)c1)C(F)(F)F (stereo not drawn) [Example 1.35] | 50 ppb
O=C(/C=C/c1ccc(C(=O)NC2CC(F)C2)c2ccccc12)NC(c1cccc(C(F)(F)F)c1)C(F)(F)F (stereo not drawn) [Example 1.36] | 50 ppb
O=C(C=Cc1ccc(C(=O)NC2CC2F)c2ccccc12)NC(c1cccc(C(F)(F)F)c1)C(F)(F)F (stereo not drawn) [Example 1.40] | 50 ppb
CC1(NC(=O)c2ccc(/C=C/C(=O)NC(c3cccc(C(F)(F)F)c3)C(F)(F)F)c3ccccc23)CCC1 (stereo not drawn) [Example 1.41] | 5 ppb
O=C(/C=C/c1ccc(C(=O)NCC2CSC2)c2ccccc12)NC(c1cccc(C(F)(F)F)c1)C(F)(F)F (stereo not drawn) [Example 1.43] | 5 ppb
N#CC1(NC(=O)c2ccc(/C=C/C(=O)NC(c3cccc(C(F)(F)F)c3)C(F)(F)F)c3ccccc23)CCC1 (stereo not drawn) [Example 1.44] | 50 ppb
O=C(/C=C/c1ccc(C(=O)NC2CON(CC(F)(F)F)C2=O)c2ccccc12)NC(c1cccc(C(F)(F)F)c1)C(F)(F)F (stereo not drawn) [Example 1.46] | 50 ppb
O=C(/C=C/c1ccc(C(=O)NC2CC2)c2ccccc12)NC(c1cccc(Br)c1)C(F)(F)F (stereo not drawn) [Example 1.56] | 50 ppb
Cc1cccc(C(NC(=O)/C=C/c2ccc(C(=O)NC3CC3)c3ccccc23)C(F)(F)F)c1 (stereo not drawn) [Example 1.58] | 50 ppb
O=C(/C=C/c1ccc(C(=O)NC2CC2)c2ccccc12)NC(c1cccc(OC(F)(F)F)c1)C(F)(F)F (stereo not drawn) [Example 1.61] | 0.5 ppb
O=C(/C=C/c1ccc(C(=O)NC2CC2)c2ccccc12)NC(c1cc(Cl)cc(Cl)c1)C(F)(F)F (stereo not drawn) [Example 1.62] | 50 ppb
O=C(/C=C/c1ccc(C(=O)NC2CC2)c2ccccc12)NC(c1ccc(Cl)c(Cl)c1)C(F)(F)F (stereo not drawn) [Example 1.63] | 50 ppb
O=C(/C=C/c1ccc(C(=O)NC2CC2)c2ccccc12)NC(c1cc(Cl)c(Cl)c(Cl)c1)C(F)(F)F (stereo not drawn) [Example 1.64] | 5 ppb
O=C(/C=C/c1ccc(C(=O)NC2CC2)c2ccccc12)NC(c1cccc(F)c1)C(F)(F)F (stereo not drawn) [Example 1.65] | 5 ppb
O=C(/C=C/c1ccc(C(=O)NC2CC2)c2ccccc12)NC(c1ccc(Cl)c(C(F)(F)F)c1)C(F)(F)F (stereo not drawn) [Example 1.66] | 50 ppb
O=C(/C=C/c1ccc(C(=O)NC2CC2)c2ccccc12)NC(c1cccc2ccccc12)C(F)(F)F (stereo not drawn) [Example 1.82] | 50 ppb
Cc1cc(/C=C/C(=O)NC(c2cccc(C(F)(F)F)c2)C(F)(F)F)sc1C(=O)NC1CC1 (stereo not drawn) [Example 2.4] | 50 ppb
O=C(/C=C/c1ccc(C(=O)NC2CC2)c2cccnc12)NC(c1cccc(C(F)(F)F)c1)C(F)(F)F (stereo not drawn) [Example 3.2] | 50 ppb
O=C(/C=C/c1ccc(C(=O)NC2CC2)c2ccccc12)NC(c1cccc(C(F)(F)F)c1)C(F)(F)F (stereo not drawn) [Example 4.1] | 50 ppb
